System: SNCA mRNA
Test: ASO-Bind-Map in cells (gapmer ASO, RT-qPCR)
Assay type: cell-based, human
Conditions: 200 nM, SH-SY5Y cells, RT-qPCR
Method: Mapping Synucleozid's binding site in cells with ASO-Bind-Map. SH-SY5Y cells were treated with vehicle (DMSO) or Synucleozid at 60% confluency overnight and were then transfected with a gapmer ASO (200 nM) with Lipofectamine RNAiMAX (Invitrogen) according to the manufacturer's instructions. Mock samples were generated by treating cells with transfection reagent lacking oligonucleotide. RNA extraction, cDNA synthesis and RT-qPCR were performed as described above after 48 h. Primers for SNCA mRNA in this experiment cover sequences upstream and downstream of the IRE; forward primer: [NT]; reverse primer [NT].

Substance | reduction of SNCA mRNA levels by gapmer [%]
5′-CACTCCCAGT-3′ (2'-MOE phosphorothioate gapmer, further chemistry not given here) [ASO(1-10), reference compound] | ~50
5′-TCCTTTACACC-3′ (2'-MOE phosphorothioate gapmer, further chemistry not given here) [ASO(29-39), reference compound] | ~50
